Article PMC11770318, “Isolation and characterization of a β-galactosidase from Lactobacillus helveticus for industrial processing” (JDS Communications, 2024)

What was measured:
[1] = target: T1, β-galactosidase (LacLM) from Lactobacillus helveticus OSU-PECh-4A (Lactobacillus helveticus, UniProt Q7WTB3+Q7WTB4); test: inhibition of lactose hydrolysis; type: biochemical; conditions: end product; substrate lactose; 50 mM sodium phosphate pH 7.0, 37°C
T1 construct: gene lacL; native, purified from Lb. helveticus OSU-PECh-4A by diafiltration and size-exclusion chromatography; GH2 heterodimer, 110 kDa (74 + 36 kDa subunits); 13 peptides identified by LC-MS; no tag
T1 sequence (Q7WTB4 whole entry): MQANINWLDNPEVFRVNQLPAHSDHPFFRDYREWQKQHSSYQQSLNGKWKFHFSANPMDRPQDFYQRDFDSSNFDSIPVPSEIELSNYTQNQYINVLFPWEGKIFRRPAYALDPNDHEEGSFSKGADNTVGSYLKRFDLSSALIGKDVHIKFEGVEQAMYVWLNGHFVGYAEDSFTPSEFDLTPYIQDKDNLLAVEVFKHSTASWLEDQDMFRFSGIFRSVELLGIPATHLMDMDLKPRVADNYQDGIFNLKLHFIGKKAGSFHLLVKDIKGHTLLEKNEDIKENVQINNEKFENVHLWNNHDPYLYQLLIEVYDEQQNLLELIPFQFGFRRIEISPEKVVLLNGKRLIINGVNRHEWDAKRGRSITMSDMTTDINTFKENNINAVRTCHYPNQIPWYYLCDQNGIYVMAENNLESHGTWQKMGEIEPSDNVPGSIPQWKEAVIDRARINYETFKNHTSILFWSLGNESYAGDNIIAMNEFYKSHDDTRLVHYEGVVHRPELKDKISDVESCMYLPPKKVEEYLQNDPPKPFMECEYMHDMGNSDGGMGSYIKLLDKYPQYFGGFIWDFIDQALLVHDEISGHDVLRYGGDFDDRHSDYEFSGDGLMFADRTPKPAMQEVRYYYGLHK
T1 sequence (Q7WTB3 whole entry): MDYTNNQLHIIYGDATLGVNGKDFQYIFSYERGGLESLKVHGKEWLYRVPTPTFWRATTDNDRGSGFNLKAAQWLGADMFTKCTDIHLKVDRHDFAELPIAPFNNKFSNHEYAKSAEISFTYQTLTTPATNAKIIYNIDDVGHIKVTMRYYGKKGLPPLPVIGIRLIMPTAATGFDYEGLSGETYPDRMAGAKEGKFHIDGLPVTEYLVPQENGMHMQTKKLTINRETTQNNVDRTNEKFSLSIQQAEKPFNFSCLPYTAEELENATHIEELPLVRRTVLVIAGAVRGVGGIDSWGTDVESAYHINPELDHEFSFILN

[2] = target: T1, β-galactosidase (LacLM) from Lactobacillus helveticus OSU-PECh-4A; test: inhibition of oNPG hydrolysis; type: biochemical; conditions: end product; substrate oNPG; 50 mM sodium phosphate pH 7.0, 37°C; allosteric (authors' interpretation)

| Compound | % loss of initial activity at 1 mM [1] | % decrease of activity below 50 mM [2] |
| --- | --- | --- |
| OC[C@H]1OC(O)[C@H](O)[C@@H](O)[C@H]1O (stereo partly drawn) [D-galactose] | 30% |  |
| OC[C@H]1OC(O)[C@H](O)[C@@H](O)[C@@H]1O (stereo partly drawn) [D-glucose] |  | 30% |
